# Reference: patent US12559506B2, “Indazole based compounds and associated methods of use” (Arvinas Operations, Inc., priority 2021, dated 2026)
# Columns and labels:
# Format in all cases: cell-based
# [1] = molecular target: T1, LRRK2 (endogenous, HiBit tagged) (Homo sapiens, UniProt Q5S007); assay: Endogenous LRRK2 degradation assay, endogenous gene C-terminally HiBit-tagged in HEK293 cells (Nano-Glo Dual Luciferase); details: endogenous HiBit-tagged LRRK2 in HEK293 cells, 24 hours; for Dmax: read-out: **Endogenous WT Dmax (%); for DC50: read-out: *Endogenous WT DC50
# T1 construct: endogenous in cells; host or cells: HEK293 cells with HiBit knock-in at the endogenous LRRK2 locus, stably expressing firefly luciferase
# Summary of the method: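 LRRK2-HiBit quantified via Nano-Glo Dual Luciferase in HEK293 knock-in cells co-expressing firefly luciferase, after 24 h exposure to compound (1 μM final top, 1:3, 11 points). Values normalised to DMSO median per plate and curve-fitted; Alamar Blue viability run alongside.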
# wildtype LRRK2 = molecular target: T2, wildtype LRRK2 (Homo sapiens, UniProt Q5S007); assay: LRRK2 degradation assay, HiBit-tagged wildtype LRRK2 expressed from plasmid in HEK293 cells (Nano-Glo Dual-Luciferase); details: HiBit-tagged wildtype LRRK2 in HEK293 cells, 24 hours; for Dmax: read-out: **WT Dmax (%); for DC50: read-out: *WT DC50
# T2 construct: expressed in transfected cells; host or cells: HEK293 (ATCC CRL-1573), transient transfection, mammalian expression vector with ubiquitin promoter
# Summary of the method: (§1)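 HEK293 cells co-transfected with C-terminal HiBiT-tagged LRRK2 (WT or G2019S, ubiquitin promoter) and firefly luciferase, then dosed 24 h at 37 °C. HiBiT/firefly ratio normalized to DMSO median; DC50 and Dmax from per-plate curve fits, six replicates over two days.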
# G2019S LRRK2 = molecular target: T3, G2019S LRRK2 (Homo sapiens, UniProt Q5S007, G2019S); assay: LRRK2 degradation assay, HiBit-tagged G2019S LRRK2 expressed from plasmid in HEK293 cells (Nano-Glo Dual-Luciferase); details: HiBit-tagged G2019S LRRK2 in HEK293 cells, 24 hours
# T3 construct: expressed in transfected cells; host or cells: HEK293 (ATCC CRL-1573), transient transfection, mammalian expression vector with ubiquitin promoter
# Summary of the method: as §1
# T3 sequence (Q5S007 whole entry G2019S): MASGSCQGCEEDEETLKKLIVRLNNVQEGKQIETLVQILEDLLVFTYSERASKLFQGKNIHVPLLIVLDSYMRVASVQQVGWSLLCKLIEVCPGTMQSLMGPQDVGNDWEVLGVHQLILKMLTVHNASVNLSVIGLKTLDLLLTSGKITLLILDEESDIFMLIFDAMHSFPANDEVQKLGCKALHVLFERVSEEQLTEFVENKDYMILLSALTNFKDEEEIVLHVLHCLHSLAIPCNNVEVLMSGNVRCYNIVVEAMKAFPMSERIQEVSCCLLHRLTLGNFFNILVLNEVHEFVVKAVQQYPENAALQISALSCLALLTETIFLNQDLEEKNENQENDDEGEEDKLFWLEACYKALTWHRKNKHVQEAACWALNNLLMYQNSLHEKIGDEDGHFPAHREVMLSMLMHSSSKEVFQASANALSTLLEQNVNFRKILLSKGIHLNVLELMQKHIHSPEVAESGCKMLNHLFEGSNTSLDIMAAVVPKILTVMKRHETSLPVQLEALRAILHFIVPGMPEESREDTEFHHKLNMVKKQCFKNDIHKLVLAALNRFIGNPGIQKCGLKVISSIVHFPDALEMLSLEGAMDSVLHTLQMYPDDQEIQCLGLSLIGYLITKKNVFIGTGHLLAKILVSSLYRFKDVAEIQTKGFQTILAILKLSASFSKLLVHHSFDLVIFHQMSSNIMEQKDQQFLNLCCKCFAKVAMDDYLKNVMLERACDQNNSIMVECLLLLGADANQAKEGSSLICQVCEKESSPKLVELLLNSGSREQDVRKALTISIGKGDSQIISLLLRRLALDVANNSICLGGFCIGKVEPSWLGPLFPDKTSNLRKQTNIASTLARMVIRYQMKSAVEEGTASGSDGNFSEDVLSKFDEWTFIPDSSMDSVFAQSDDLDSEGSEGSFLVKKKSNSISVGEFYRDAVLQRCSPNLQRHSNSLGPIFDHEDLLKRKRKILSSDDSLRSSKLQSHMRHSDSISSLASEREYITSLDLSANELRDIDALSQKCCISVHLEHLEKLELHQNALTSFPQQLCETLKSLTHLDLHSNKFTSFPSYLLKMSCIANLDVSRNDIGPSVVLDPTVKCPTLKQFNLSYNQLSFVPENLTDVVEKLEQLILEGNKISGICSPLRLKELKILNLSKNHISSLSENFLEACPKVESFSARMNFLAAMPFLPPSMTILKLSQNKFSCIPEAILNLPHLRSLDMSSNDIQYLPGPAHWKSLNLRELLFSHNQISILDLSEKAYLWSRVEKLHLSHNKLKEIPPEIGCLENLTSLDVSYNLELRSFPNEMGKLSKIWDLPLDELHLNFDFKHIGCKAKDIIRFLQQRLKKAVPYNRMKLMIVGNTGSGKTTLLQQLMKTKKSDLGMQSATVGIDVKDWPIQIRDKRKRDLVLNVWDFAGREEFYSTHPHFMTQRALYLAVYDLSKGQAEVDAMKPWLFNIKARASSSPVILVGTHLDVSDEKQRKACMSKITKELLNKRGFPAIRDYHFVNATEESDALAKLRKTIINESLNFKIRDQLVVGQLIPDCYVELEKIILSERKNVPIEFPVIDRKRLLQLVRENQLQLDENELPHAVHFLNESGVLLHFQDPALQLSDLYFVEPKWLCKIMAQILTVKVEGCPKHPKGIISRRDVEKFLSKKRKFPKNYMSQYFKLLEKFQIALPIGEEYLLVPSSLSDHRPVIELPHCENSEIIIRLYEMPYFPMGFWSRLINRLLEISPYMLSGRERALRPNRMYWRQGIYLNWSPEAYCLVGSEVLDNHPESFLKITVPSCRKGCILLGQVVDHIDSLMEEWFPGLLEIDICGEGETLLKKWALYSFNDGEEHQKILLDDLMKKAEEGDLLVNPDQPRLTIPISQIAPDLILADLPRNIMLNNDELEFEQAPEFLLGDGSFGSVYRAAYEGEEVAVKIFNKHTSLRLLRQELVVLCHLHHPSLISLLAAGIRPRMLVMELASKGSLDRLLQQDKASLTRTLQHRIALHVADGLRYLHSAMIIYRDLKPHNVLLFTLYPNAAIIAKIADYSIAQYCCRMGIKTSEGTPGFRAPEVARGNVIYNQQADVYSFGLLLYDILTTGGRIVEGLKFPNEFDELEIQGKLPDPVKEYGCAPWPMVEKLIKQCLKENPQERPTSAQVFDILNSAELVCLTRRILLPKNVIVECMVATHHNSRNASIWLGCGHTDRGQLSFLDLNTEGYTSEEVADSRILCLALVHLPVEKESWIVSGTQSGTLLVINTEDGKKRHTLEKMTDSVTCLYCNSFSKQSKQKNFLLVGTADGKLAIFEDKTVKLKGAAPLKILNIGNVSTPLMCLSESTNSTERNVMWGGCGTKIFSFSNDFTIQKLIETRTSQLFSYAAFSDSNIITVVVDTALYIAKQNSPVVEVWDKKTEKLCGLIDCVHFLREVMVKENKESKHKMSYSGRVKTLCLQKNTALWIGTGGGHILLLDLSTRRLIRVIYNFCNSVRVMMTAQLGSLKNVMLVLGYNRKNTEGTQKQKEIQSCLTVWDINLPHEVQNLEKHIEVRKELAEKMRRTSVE
# T1 sequence (Q5S007 whole entry): as the sequence (Q5S007 whole entry G2019S) above, with S2019G counted along it
# T2 sequence (Q5S007 whole entry): as the sequence (Q5S007 whole entry G2019S) above, with S2019G counted along it
structure (smiles),measurement,setting,value
"C[C@H]1CN(c2cc(-c3n[nH]c4ccc(OC5(C)CC5)cc34)ncn2)CCN1CCC1(F)CCN(CC2CCN(c3ccc4c(c3)C(=O)N(C3CCC(=O)NC3=O)C4=O)CC2)CC1 (stereo partly drawn) [Compound 52, 2-(2,6-dioxo-3-piperidyl)-5-[4-[[4-fluoro-4-[2-[(2S)-2-methyl-4-[6-[5-(1-methylcyclopropoxy)-1H-indazol-3-yl]pyrimidin-4-yl]piperazin-1-yl]ethyl]-1-piperidyl]methyl]-1-piperidyl]isoindoline-1,3-dione]",Dmax,[1],≥ 70%
same,DC50,[1],10 to 50 nM
same,Dmax,wildtype LRRK2,50 to 70%
same,DC50,wildtype LRRK2,< 10 nM
same,DC50,G2019S LRRK2,< 10 nM
same,Dmax,G2019S LRRK2,50 to 70%
"CC1(Oc2ccc3n[nH]c(-c4cc(N5CCC(COC6CCN(CC7CCN(c8ccc9c(c8)C(=O)N(C8CCC(=O)NC8=O)C9=O)CC7)CC6)CC5)ncn4)c3c2)CC1 (stereo not drawn) [Compound 61, 2-(2,6-dioxo-3-piperidyl)-5-[4-[[4-[[1-[6-[5-(1-methylcyclopropoxy)-2H-indazol-3-yl]pyrimidin-4-yl]-4-piperidyl]methoxy]-1-piperidyl]methyl]-1-piperidyl]isoindoline-1,3-dione]",Dmax,[1],≥ 70%
same,DC50,[1],< 10 nM
same,Dmax,wildtype LRRK2,≥ 70%
same,DC50,wildtype LRRK2,< 10 nM
same,DC50,G2019S LRRK2,< 10 nM
same,Dmax,G2019S LRRK2,≥ 70%
"C[C@H]1CN(c2cc(-c3[nH]nc4ccc(OC5(C)CC5)cc34)ncn2)CCN1CCC1(F)CCN(CC2CCN(c3ccc4c(c3)CN(C3CCC(=O)NC3=O)C4=O)CC2)CC1 (stereo partly drawn) [Compound 64, 3-[5-[4-[[4-fluoro-4-[2-[(2S)-2-methyl-4-[6-[5-(1-methylcyclopropoxy)-2H-indazol-3-yl]pyrimidin-4-yl]piperazin-1-yl]ethyl]-1-piperidyl]methyl]-1-piperidyl]-1-oxo-isoindolin-2-yl]piperidine-2,6-dione]",Dmax,[1],≥ 70%
same,DC50,[1],< 10 nM
same,Dmax,wildtype LRRK2,≥ 70%
same,DC50,wildtype LRRK2,< 10 nM
same,DC50,G2019S LRRK2,< 10 nM
same,Dmax,G2019S LRRK2,≥ 70%
"CC1(Oc2ccc3n[nH]c(-c4cc(N5CCC(CN6CCN(CC7CCN(c8ccc9c(c8)C(=O)N(C8CCC(=O)NC8=O)C9=O)CC7)CC6)CC5)ncn4)c3c2)CC1 (stereo not drawn) [Compound 68, 2-(2,6-dioxo-3-piperidyl)-5-[4-[[4-[[1-[6-[5-(1-methylcyclopropoxy)-2H-indazol-3-yl]pyrimidin-4-yl]-4-piperidyl]methyl]piperazin-1-yl]methyl]-1-piperidyl]isoindoline-1,3-dione]",Dmax,[1],≥ 70%
same,DC50,[1],< 10 nM
same,Dmax,wildtype LRRK2,≥ 70%
same,DC50,wildtype LRRK2,< 10 nM
same,DC50,G2019S LRRK2,< 10 nM
same,Dmax,G2019S LRRK2,≥ 70%
"C[C@H]1CN(c2cc(-c3n[nH]c4ccc(OC5(C)CC5)cc34)ncn2)CCN1CC1(F)CCN(CC2CCN(c3ccc4c(c3)C(=O)N(C3CCC(=O)NC3=O)C4=O)CC2)CC1 (stereo partly drawn) [Compound 69, 2-(2,6-dioxo-3-piperidyl)-5-[4-[[4-fluoro-4-[[(2S)-2-methyl-4-[6-[5-(1-methylcyclopropoxy)-1H-indazol-3-yl]pyrimidin-4-yl]piperazin-1-yl]methyl]-1-piperidyl]methyl]-1-piperidyl]isoindoline-1,3-dione]",Dmax,[1],50 to 70%
same,DC50,[1],< 10 nM
same,Dmax,wildtype LRRK2,< 50%
same,DC50,wildtype LRRK2,< 10 nM
same,DC50,G2019S LRRK2,< 10 nM
same,Dmax,G2019S LRRK2,< 50%
"CC1(Oc2ccc3n[nH]c(-c4cc(N5CCC(CN6CCN(CC7CCN(c8ccc9c(c8)CN(C8CCC(=O)NC8=O)C9=O)CC7)CC6)CC5)ncn4)c3c2)CC1 (stereo not drawn) [Compound 112, 3-[5-[4-[[4-[[1-[6-[5-(1-methylcyclopropoxy)-2H-indazol-3-yl]pyrimidin-4-yl]-4-piperidyl]methyl]piperazin-1-yl]methyl]-1-piperidyl]-1-oxo-isoindolin-2-yl]piperidine-2,6-dione]",Dmax,[1],≥ 70%
same,DC50,[1],< 10 nM
same,Dmax,wildtype LRRK2,≥ 70%
same,DC50,wildtype LRRK2,< 10 nM
same,DC50,G2019S LRRK2,< 10 nM
same,Dmax,G2019S LRRK2,≥ 70%
